Patent publication US6627732B1, “Glutathione derivatives and their dosage forms” (Teijin Limited, priority 1998, dated 2003)

Columns and labels:
[1] = Plasma concentration after intravenous administration to mice (Example 24); assay type: in vivo, mouse; details: iv tail vein 50 mg/kg, HPCD solution, 5 min, individual mice, quantitation limit about 1 μg/ml
Description: The blood levels of the glutathione derivatives of Example 4 and Comparative Example 1 were compared in mice that are a species having a high esterase activity in the blood.
(1) Male 8-week old BDF1 mice were purchased from Nippon SLC and used for the experiment. Until 9-week old when they were subjected to the experiment, the animals were kept at a temperature of 24±2° C. and a humidity of 55±5% under the condition under which the animals had free access to the animal feed (MF, Oriental Yeast Co., Ltd.) and drinking water (well water treated with 0.4±0.2 ppm hypochlorous acid).
After a fixed time, about 1 ml of blood was drawn from the heart of the animal under ethereal anesthesia (after drawing blood once, each mouse is sacrificed). The N number for each sample group at each time point was 2. After drawing, the blood was immediately cooled on ice and was centrifuged in the presence of sodium citrate to collect plasma. The plasma thus obtained was deproteinized with acetonitrile and then was analyzed by a C18 reverse phase high performance liquid chromatography using an aqueous solution of trifluoroacetic acid/acetonitrile system as the mobile phase to determine the concentration of glutathione derivative for each plasma.

[2] = tested on: rat models of suppressed hematopoietic function by 5-FU administration; assay: Ratio of segmented neutrophils in rat models of suppressed hematopoietic function by 5-FU (Example 27); assay type: in vivo; details: 5-FU rats; 30 mg/kg-body weight/day with fat emulsion
Description: (1) The animals used are the same as in Example 26. The keeping condition was a temperature of 23±2° C. and a humidity of 55±15%.
(2) The creation of the 5-FU administration model, the administration of test substances, and the blood collection schedule were carried out in a similar manner to Example 26. Hematological tests were carried out using the Toa multi-channel automatic cell counter K-4500 or Toa Sysmex CC-180A automatic cell counter, differential counts of white blood cells were carried out by May-Giemsa stain followed by microscopic examination, reticulocytes were counted by the Brecher method.
(3) Using the same schedule as in Example 26, the negative control group that only received the fat emulsion after 5-FU administration, the group that received the glutathione derivative of Example 4 at 30 mg/kg-body weight/day as a test substance together with the fat emulsion, the group that similarly received the glutathione derivative of Example 1 at 10 or 30 mg/kg-body weight/day, and the group that received the glutathione derivative of Example 7 at 30 or 60 mg/kg-body weight/day were studied.

IL-1β = assay: Plasma level of IL-1β in normal healthy rats (ELISA); assay type: in vivo, rat; details: fat emulsion 20 mg/kg-body weight/day, days 3, 5 and 7
From the text: , plasma obtained form the EDTA-2K-treated blood on days 3, 5, and 7 of the experiment was used to determine plasma levels of interleukin 1β (hereinafter referred to as IL-1β) and tumor necrosis factor (hereinafter referred to as TNFα). For the determination, the rat IL-1β-ELISA system (manufactured by Amersham Pharmacia Biotek Co., Ltd.), the rat TNFα-ELISA system (manufactured by Amersham Pharmacia Biotek Co., Ltd.), and the BioRad microplate reader (MODEL550, Nippon BioRad laboratories, Co., Ltd.).

Structure (SMILES)	Plasma concentration [1]	Recovery of segmented neutrophil counts relative to the negative control [2]	Plasma level of IL-1β relative to the negative control group (IL-1β)
CCOC(=O)[C@@H](N)CCC(=O)N[C@@H](CSCc1ccccc1)C(=O)N[C@@H](C(=O)OCC)c1ccccc1.Cl [Comparative Example 1, Glu(Cys(Bzl)-D-Phg-O(Et))-O(Et)hydrochloride, reference compound]	≤ 1000 ng/mL		
CCCCCCCCCCCCCCCCOC(=O)[C@@H](N)CCC(=O)N[C@@H](CSCc1ccccc1)C(=O)N[C@@H](C(=O)OCC)c1ccccc1.Cl [Example 4, Glu(Cys(Bzl)-D-Phg-OEt)-O(Hexadecyl)hydrochloride]		tendency of promoting the recovery of segmented neutrophil counts	No increases
